The values below come from patent publication US5703106A, “Antagonists of endothelin receptors” (priority 1994, dated 1997).

The first assay addresses T1, ETB receptor (Sus scrofa, UniProt P35463).
T1 construct: The plasma membrane of porcine lung (2 mg of protein); from tissue; host or cells: porcine lung plasma membrane
T1 sequence (P35463 27-443): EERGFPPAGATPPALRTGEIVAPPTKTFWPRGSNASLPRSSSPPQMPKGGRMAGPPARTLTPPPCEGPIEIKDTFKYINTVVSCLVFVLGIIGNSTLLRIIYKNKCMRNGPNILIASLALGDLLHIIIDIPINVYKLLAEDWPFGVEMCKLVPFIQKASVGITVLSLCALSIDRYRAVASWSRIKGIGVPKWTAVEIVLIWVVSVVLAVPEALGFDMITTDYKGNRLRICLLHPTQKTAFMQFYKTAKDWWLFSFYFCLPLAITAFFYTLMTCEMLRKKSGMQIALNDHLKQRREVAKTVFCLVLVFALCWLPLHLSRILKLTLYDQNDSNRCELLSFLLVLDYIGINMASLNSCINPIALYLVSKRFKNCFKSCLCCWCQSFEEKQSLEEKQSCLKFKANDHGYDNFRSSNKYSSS
Description: Endothelin (ET) receptor binding assay, ETB receptor. The note with it: [^125 I]ET-3 alone; porcine lung plasma membrane; 37° C., 1 hour, pH 7.4. As for the experimental part: Endothelin (ET) receptor binding assay
(§1) After the incubation, unbound [^125 I]ETs were separated by centrifugation at 20,000×g for 20 min at 4° C. followed by aspiration of the supernatant. The radioactivity in the membrane pellet is measured in Wallac-1470 Wizard autogamma counter (Pharmacia). Nonspecific binding is defined as membrane-associated radioactivity in the presence of saturating concentrations of ETs (100 nM). Nonspecific binding is subtracted from the total binding and the difference is defined as specific binding.
`Cc1cc(C)cc(C(=O)N(C)[C@H](Cc2ccc(O)cc2)C(=O)NC(Cc2c[nH]c3ccccc23)C(=O)NS(=O)(=O)c2ccccc2)c1` (some centres unmarked) [7(9), N-benzenesulfonyl-[N-(3,5-dimethylbenzoyl)-N-methyl-3-(4-hydroxyphenyl)-(D)-alanyl]-(D,L)-tryptophanamide] returned a Ki of 2.3 nM.
On the same count and under the same terms, for `CCCCS(=O)(=O)NC(=O)[C@@H](NC(=O)C(Cc1ccc(-c2ccno2)cc1)N(C)C(=O)c1cc(C)cc(C)c1)[C@@H](C)CC` (some centres unmarked) [10(a), N-butanesulfonyl-[N-(3,5-dimethylbenzoyl)-N-methyl-3-[4-(5-isoxazolyl)-phenyl]-(D,L)-alanyl]-(L)-isoleucineamide] the value was 3.5 nM; for `C=CCS(=O)(=O)NC(=O)[C@H](Cc1c[nH]c2ccccc12)NC(=O)C(Cc1ccc(-c2ccno2)cc1)N(C)C(=O)c1cc(C)cc(C)c1` (some centres unmarked) [Example 9, N-(2-propene)sulfonyl-[N-(3,5-dimethylbenzoyl)-N-methyl-3-[4-(5-isoxazolyl)-phenyl]-(D,L)-alanyl]-(L)-tryptophanamide], 0.23 nM.
The same measure, in the same setting: then `Cc1cc(C)cc(C(=O)N(C)[C@H](Cc2ccc(-c3ccsc3)cc2)C(=O)NC(Cc2c[nH]c3ccccc23)C(=O)NS(=O)(=O)c2cccs2)c1` (some centres unmarked) [Example 2, N-(2-thienyl)sulfonyl-[N-(3,5-dimethylbenzoyl)-N-methyl-(D)-3-[4-(3-thienyl)phenyl]-alanyl]-(D,L)-tryptophanamide], with 0.3 nM.
The same measure, in the same setting: then `CCCCS(=O)(=O)NC(=O)[C@H](Cc1c[nH]c2ccccc12)NC(=O)C(Cc1ccc(-n2cncn2)cc1)N(C)C(=O)c1cc(C)cc(C)c1` (some centres unmarked) [Example 12, N-butanesulfonyl-[N-(3,5-dimethylbenzoyl)-N-methyl-3-[4-(1,2,4-triazol-1-yl)-phenyl]-(D,L)-alanyl]-(L)-tryptophanamide], with 0.16 nM.
The molecule `CCCCS(=O)(=O)NC(=O)[C@H](Cc1c[nH]c2ccccc12)NC(=O)C(Cc1ccc(-c2ccno2)cc1)N(C)C(=O)c1cc(C)cc(C)c1` (some centres unmarked) [Example 8, N-butanesulfonyl-[N-(3,5-dimethylbenzoyl)-N-methyl-3-[4-(5-isoxazolyl)-phenyl]-(D,L)-alanyl]-(L)-tryotophanamide] gave a Ki of 0.24 nM.
The molecule `CCCCS(=O)(=O)NC(=O)[C@@H](NC(=O)C(Cc1ccc(-c2ccno2)cc1)N(C)C(=O)c1cc(C)cc(C)c1)C(C)C` (some centres unmarked) [Example 11, N-butanesulfonyl-[N-(3,5-dimethylbenzoyl)-N-methyl-3-[4-(5-isoxazolyl)-phenyl]-(D,L)-alanyl]-(L)-valineamide] registered a Ki of 1.2 nM.
Still for that read-out and setting: for `CCCCS(=O)(=O)NC(=O)[C@H](Cc1c[nH]c2ccccc12)NC(=O)C(Cc1ccc(-n2ccnn2)cc1)N(C)C(=O)c1cc(C)cc(C)c1` (some centres unmarked) [Example 13, N-butanesulfonyl-[N-(3,5-dimethylbenzoyl)-N-methyl-3-[4-(1,2,3-triazol-1-yl)-phenyl]-(D,L)-alanyl]-(L)-tryptophanamide] the value was 0.27 nM.
`Cc1cc(C)cc(C(=O)N(C)[C@H](Cc2ccc(-c3ccccc3)cc2)C(=O)NC(Cc2c[nH]c3ccccc23)C(=O)NS(=O)(=O)c2ccccc2)c1` (some centres unmarked) [Example 1, N-benzenesulfonyl-[N-(3,5-dimethylbenzoyl)-N-methyl-3-(biphenyl-4-yl)-(D)-alanyl]-(D,L)-tryptophanamide] returned a Ki of 0.9 nM.
As to `Cc1cc(C)cc(C(=O)N(C)[C@H](Cc2ccc(-c3ccno3)cc2)C(=O)NC(Cc2c[nH]c3ccccc23)C(=O)NS(=O)(=O)c2ccccc2)c1` (some centres unmarked) [Example 6], the Ki amounted to 0.34 nM.

For a further assay, the target named is T1, ETB receptor. Description: Scatchard analysis of radioligand binding, ETB receptor. The note with it: porcine lung plasma membrane, [^125 I]ET-3 alone. As for the experimental part:
as §1, with “binding. Total binding is always less than 15% of the total radioactivity added. […] From the inhibition curves for the binding of [^125 I]ETs, the apparant binding affinity constant (Ki) of one of the test compounds is calculated as a parameter of the affinity for the ETA and ETB receptors, as shown in the following table.” for “binding.”
“[^125 I]ET-3: radiolabelled endothelin-3 purchased from Amersham International; ETs are vasoactive peptides with 21 amino acid residues”: the Bmax was found to be 362 fmol/mg protein.
